Consider three molecules from US12508302B2, “Pharmaceutical composition providing mucolytic effect” (FRIMLINE PRIVATE LIMITED, priority 2022, dated 2025).

This assay concerns tracheobronchial secretion in rats. The assay is described as follows: Mucolytic activity in rats: tracheobronchial secretion of fluorescein sodium (FINa). Format: in vivo, rat (Swiss Albino Rats). The settings on record: for Fluorescein Sodium (FINa) Secretion: dosed 30 minutes before i.v. FINa 300 mg/kg, tracheobronchial lavage one hour after administration, doses as Table 1, mean±SEM; for Percentage (%) Enhancement of FINa secretion compared to Normal: versus normal group (G1). The procedure:
The effect of the compositions of the present invention was studied in animals. For this study, screening effect of synergistic combination of compositions/formulations comprising N-Acetyl-L-Cysteine, Lactoferrin and additional active ingredients for mucolytic activity in rat was performed. The following trials were carried out:
Eighty-Four (84) rats including male and female (Swiss Albino Rats) divided into 14 groups (6 per group) were maintained in animal house in a light/dark atmosphere based on a 12 hour cycle having temperature and relative humidity in the range of 19 to 25±2° C. and 30-70%, respectively. To maintain the appropriate conditions, temperature and relative humidity were recorded three times daily. All animals were acclimatized for a minimum period of five days. Animals were maintained in the test setup for minimum 30 minutes once during the acclimatization period to reduce the stress. Animals were weighed on the day of receipt and observed daily for abnormalities if any. Detailed records of acclimatization were also maintained. Rats were housed 3 per cage in clean, sterilized Polypropylene cages. During complete experiments, animals were supplied with the standard certified rat pellet feed and drinking water treated by reverse osmosis ad libitum.
In order to evaluate the mucolytic activity in rats, eighty-four (84) rats were screened and divided into Fourteen (14) groups. For a comparative analysis, groups were divided and treated as below:
Tracheobronchial secretion in rats, expressed by the amount of fluorescein sodium (FINa) dye excreted into the respiratory tract, was measured by modification of methods published earlier.
Lactoferrin, Carotenoid, N-Acetyl-L-Cysteine or their combinations (G4-G14) were suspended in 1% Acacia. Acetylcholine (G2) and Bromhexine (G3) were dissolved in distilled water. The said active ingredients were administered orally (1 ml/100 g body weight) 30 minutes before intravenous injection of FINa (300 mg/kg, 0.1 ml/100 g body weight) in fasted rats.
One hour after administration, all rats were sacrificed with CO2 exposure; an incision was made, and the trachea was immediately exposed. An infant feeding tube was gently inserted into the trachea (about 30 mm deep). Five milliliters of 5% NaHCO3 solution (˜37° C.) was injected into the respiratory tract and immediately aspirated while gently massaging the thoracic area.
The tracheobronchial lavage fluid (4.9±0.1 ml) was centrifuged (3500 rpm for 10 minutes) and the supernatant was transferred to STP B & L tubes. The fluorescence intensity of the supernatant was measured with a Genesys 20 spectrophotometer set at a wavelength of 510 nm (emission).

Take `CC(=O)OCC[N+](C)(C)C` [Diseased Control, Acetylcholine]: the “Fluorescein Sodium (FINa) Secretion” value was determined as 0.37 ± 0.12 μg/100 g/h. Besides, where the note is “doses as Table 1”, the “Percentage (%) Enhancement of FINa secretion compared to Normal” value (from here on “Percentage (%) Enhancement”) is recorded as −74.13 ± 6.4 ^ %. In addition, the “Percentage (%) Enhancement” value (doses as Table 1, listed as diseased group) is listed as −74.13%.

In the case of `CN(Cc1cc(Br)cc(Br)c1N)C1CCCCC1` [Positive Control, Bromhexine], the “Fluorescein Sodium (FINa) Secretion” value is recorded as 2.64 ± 0.18 μg/100 g/h. Further, the “Percentage (%) Enhancement” value (doses as Table 1) came out at 84.62 ± 6.1%. Moreover, the “Percentage (%) Enhancement” value (doses as Table 1, listed as positive control) came to 84.62%.

In the case of `CC(=O)N[C@@H](CS)C(=O)O` [NAC, N-Acetyl-L-Cysteine], the “Fluorescein Sodium (FINa) Secretion” value came to 1.99 ± 0.08 μg/100 g/h. For the same molecule, the “Percentage (%) Enhancement” value (doses as Table 1) turned out to be 39.16 ± 5.1%. The “Percentage (%) Enhancement” value (doses as Table 1, listed as N-Acetyl-L-Cysteine) is given as 39.16%.
